Measurements taken from patent publication US11446276B2, “Extreme low dose THC as a therapeutic and prophylactic agent for Alzheimer's disease” (University of South Florida, priority 2015, dated 2022).
Entries after “also recorded” stand apart in the source; their conditions may differ.

Columns and labels:
brain energy metabolism = conditions: repeated high doses of THC (10 mg/kg body weight); rat brains; cited from earlier work
Aβ1-40 peptide = molecular target: T1, Aβ1-40 peptide (Homo sapiens, UniProt P05067); experiment: ThT assay of Aβ aggregation; format: biochemical; conditions: THC 0.25-250 nM; Aβ1-40 1 μM; FIG. 3A
T1 construct: purchased Biomer Technology, Pleasanton, Calif
T1 sequence (P05067 672-711): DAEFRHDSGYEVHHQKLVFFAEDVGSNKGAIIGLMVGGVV
Protocol: A ThT assay was conducted to examine the interaction between THC and Aβ, as ThT incorporates into Aβ when the amyloid protein aggregates, indicating whether there is a direct interaction between THC and Aβ aggregation.
Hexafluoroisopropanol-(HFIP) pretreated Aβ1-40 peptide (Biomer Technology, Pleasanton, Calif.). THC solution was prepared at concentration of 250 nM, 25 nM, 2.5 nM, and 0.25 nM in thioflavin T (ThT) (1.6 μg/mL dissolved in 20 mM Tris-HCL). The THC-ThT was added into black 96 well plates. Unaggregated Aβ peptide solution was thawed, diluted, and immediately added to wells, making the final concentration of Aβ1-40 at 1 μM. Control groups were setup as: 1) aggregation control; 2) control with ThT buffer only; and 3) Tris-HCl buffer only. Plate was mixed and fluorescence was read at 482 nm with excitation 440 nm with Biotek All-in-One plate reader. Fluorescence was screened for 2 hours with 5-minute intervals.

N2a/AβPPswe cells = experiment: MTT toxicity assay; conditions: 36 hours; different concentrations; versus untreated cells; FIG. 9A
Protocol: Cells were plated in 96-well tissue culture plate at 10,000 cells/well, 100 μL/well. 100 μL THC solution was added at 2× concentrations in each well. Control groups are: 1) cells without THC treatment, cells and fresh medium only and 2) blank, wells with medium without cells. All wells were replicated. Wells were incubated for 36 hours. Cell proliferation kit (Roche 11465007001) was then applied for toxicity assay according to the standard protocol. 10 μL of MTT reagent was first added to each well and incubated at 37° C. for 4 hours. Then 100 μL of solubilization solution was added to each well. These were incubated overnight and optical density (OD) values were read at 575 nm. The percentage of cell viability was calculated as: Cell viability %=(OD−OD blank)/(OD control−OD blank).

[1] = molecular target: AChE induced Aβ aggregation (Homo sapiens, UniProt P22303); conditions: THC 50 μM; cited from earlier work
Chain of AChE induced Aβ aggregation (P22303 32-614): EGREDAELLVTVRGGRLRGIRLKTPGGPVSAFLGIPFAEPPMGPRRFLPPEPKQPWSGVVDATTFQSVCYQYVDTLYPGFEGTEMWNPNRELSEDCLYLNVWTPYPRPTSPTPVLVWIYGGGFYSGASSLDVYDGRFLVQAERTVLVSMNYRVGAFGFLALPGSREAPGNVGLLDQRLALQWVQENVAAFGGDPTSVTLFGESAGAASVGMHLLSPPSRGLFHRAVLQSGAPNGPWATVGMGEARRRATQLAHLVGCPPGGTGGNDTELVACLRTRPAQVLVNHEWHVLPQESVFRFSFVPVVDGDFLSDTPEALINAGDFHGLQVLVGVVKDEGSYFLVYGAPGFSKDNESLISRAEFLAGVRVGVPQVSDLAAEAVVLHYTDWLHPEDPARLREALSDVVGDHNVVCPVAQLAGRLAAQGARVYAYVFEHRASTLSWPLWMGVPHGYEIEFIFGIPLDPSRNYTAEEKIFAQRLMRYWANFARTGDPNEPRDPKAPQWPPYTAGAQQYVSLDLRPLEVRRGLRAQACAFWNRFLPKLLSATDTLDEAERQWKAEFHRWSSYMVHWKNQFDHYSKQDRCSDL

[2] = molecular target: acetylcholinesterase (AChE) (Homo sapiens, UniProt P22303); conditions: THC 50 μM; cited from earlier work
Chain of acetylcholinesterase (AChE) (P22303 32-614): as above

phosphorylated GSK-3β = experiment: Western blot of phosphorylated GSK-3β in N2a/AβPPswe cells; format: cell-based; conditions: 25 nM, 2.5 nM, 0.25 nM THC; 36 hours; FIGS. 5D, 10B
Protocol: Cells were plated in 6 well plate overnight with 25 nM THC, 2.5 nM THC, or 0.25 nM THC added into each designated wells in duplicate. Cells were lysed after 36 hours incubation. Proteins were loaded onto SDS-page gel and then blotted with each antibody after transfer onto PVDF membrane.
Using 12% Tris-Glycine gel system (Bio-rad), proteins were separated by electrophoresis and semi-dry transferred to a PVDF membrane. GSK-3β and β-actin antibodies were used as primary antibody. After adding secondary antibody, the membranes were exposed using ECL substrate (Pierce). After membrane was developed, film with bands were scanned, followed by analysis of gel-quantification software (QuantityOne, from Biorad).

[3] = molecular target: Aβ peptide amino acids 1-10, the major B-cell epitope (Homo sapiens, UniProt P05067); experiment: ELISA for THC interference with the major B cell epitope of Aβ; format: binding; conditions: each increasing concentration of THC; FIG. 3B
Chain of Aβ peptide amino acids 1-10, the major B-cell epitope (P05067 672-711 limits assumed): as the sequence (P05067 672-711) above
Protocol: In untreated samples, Aβ peptide increased in intensity for the first 20 minutes, followed by a plateauing of fluorescence at around 30 minutes, at which time the intensity remained constant for the duration of the study. […] Therefore, THC's direct interaction with the Aβ peptide will not dampen an immune response to clear the Aβ peptide. Further analysis with western blot was performed measuring the anti-aggregation properties of THC with Aβ peptide.

GSK-3β = conditions: 10 mg/kg of body weight of THC; mice; cited from earlier work

## CCCCCc1cc(O)c2c(c1)OC(C)(C)[C@@H]1CCC(C)=C[C@@H]21 [THC, Δ9-tetrahydrocannabinol]
Brain energy metabolism
  Brain energy metabolism: dampen the brain energy metabolism
Aβ1-40 peptide
  Thioflavin T fluorescence intensity / Aβ aggregation: lowers Aβ aggregation; also recorded: dose-dependent decrease; also recorded: inhibits Aβ40 aggregation
N2a/AβPPswe cells
  Toxicity (reduction of MTT, OD): no significant difference from the control; also recorded: no toxicity; also recorded: lack of toxicity
[1]
  AChE induced Aβ aggregation: prevents AChE induced Aβ aggregation
[2]
  Inhibition of AChE: competitively inhibits
Phosphorylated GSK-3β
  Phosphorylated GSK-3β, THC alone: decreases the phosphorylation of GSK-3β; also recorded: decrease of phosphorylated GSK-3β; also recorded: decreases phosphorylated GSK-3β
[3]
  Interference with the major B cell epitope of Aβ (ELISA absorbance): No identified interference; also recorded: no significant difference in absorbance
GSK-3β
  Phosphorylation of GSK-3β: increased phosphorylation of GSK-3β
